Data taken from US20170143674A1, “Use of Glutaryl Histamine for the Treatment of Respiratory Tract Diseases” (LTD "VALENTA-INTELLEKT", priority 2011, published 2017).

Legend:
[1] = test system: Staphylococcus aureus (mouse-adapted strain 10); experiment: animal or person; assay type: in vivo, mice; settings: for Mortality rate (%) / Survival rate (%): tenth day
Procedure: The tested medicament was glutaryl histamine in doses of 15, 30 and 45 mg/kg. Solutions of the tested medicament for oral administration were prepared ex tempore. Ampicillin (in intravenous administration) was used as a therapeutic preparation since this substance was the most experimentally studied antibiotic approved in clinical practice many years ago.
Staphylococcus aureus (mouse-adapted strain 10) was used as an infectious agent. Mice were infected intravenously.
Firstly, there was determined a lethal dose (LD100) of staphylococcus when intravenously administered to this line of mice with a certain weight. Fatal cases among mice were registered every day for ten days. The lethal dose was 3×10^8 CFU/mouse. […] For this purpose, mice were housed into cages (10 animals per cage) and infected with a lethal dose of staphylococcus. One hour later, each mouse was intravenously administered ampicillin in doses of 10, 20, 30, 40, and 50 mg/kg. A group of mice infected with a lethal dose of staphylococcus without the treatment was considered as a control group. Fatal cases among mice were registered every day for ten days.
The next step of the experiment was to study an effect of combined administration of glutaryl histamine with ampicillin on a model of staphylococcal sepsis in mice.
(§1) In the experiment, mice were housed in following groups (10 animals per cage):
Glutaryl histamine was administered orally in the corresponding doses to mice of groups 3, 4, 5, 6, 7, and 8 for 5 days. Five day after, all groups of mice were intravenously administered 0.2 ml of Staphylococcus aureus in the lethal dose. One hour after infection, mice of groups 2, 6, 7 and 8 were […] administered 0.2 ml of ampicillin in a dose of 20 mg/kg. After infection and administration of ampicillin, mice of groups 3-8 were administered glutaryl histamine for additional 5 days. During the experiment, the animals were observed every day, and fatal cases were registered.

[2] = test system: Escherichia coli (mouse-adapted strain 4300); experiment: animal or person; assay type: in vivo, mice; settings: for Mortality rate (%) / Survival rate (%): tenth day
Procedure: Escherichia coli (mouse-adaptedstrain 4300, Institute collection) was used as an infectious agent. Mice were infected intravenously.
Firstly, there were determined a lethal dose (LD100) of Escherichia coli to be intravenously administered to this line of mice with a certain weight. Fatal cases among mice were registered every day for ten days. […] For this purpose, mice were housed into cages (10 animals per cage) and infected with a lethal dose of Escherichia coli. One hour after each mouse was administered orally levofloxacin in doses of 1, 2, 4, 6, 8, 10, and 12 mg/kg. A group of mice infected with a lethal dose of Escherichia coli without the treatment was considered as a control group. Fatal cases among mice were registered every day for ten days.
The next step of the experiment was to study an effect of combined administration of glutaryl histamine and levofloxacin on a model of E. coli sepsis in mice.
as §1
Glutaryl histamine was administered orally in the corresponding doses to mice of groups 3, 4, 5, 6, 7, and 8 for 5 days. Five day after, all groups of mice were intravenously administered 0.2 ml of Escherichia coli in the lethal dose. […] After infection and administration of levofloxacin, glutaryl histamine was administered to mice of groups 3-8 for additional 5 days. During the experiment, the animals were observed every day, and fatal cases were registered (see Table 14).

[3] = day 1, glutaryl histamine 15 mg/kg
[4] = day 1, glutaryl histamine 30 mg/kg
[5] = day 1, glutaryl histamine 45 mg/kg
[6] = day 2, glutaryl histamine 15 mg/kg
[7] = day 2, glutaryl histamine 30 mg/kg
[8] = day 2, glutaryl histamine 45 mg/kg
[9] = day 3, glutaryl histamine 15 mg/kg
[10] = day 3, glutaryl histamine 30 mg/kg
[11] = day 3, glutaryl histamine 45 mg/kg
[12] = day 4, glutaryl histamine 15 mg/kg
[13] = day 4, glutaryl histamine 30 mg/kg
[14] = day 4, glutaryl histamine 45 mg/kg
[15] = day 5, glutaryl histamine 15 mg/kg
[16] = day 5, glutaryl histamine 30 mg/kg
[17] = day 5, glutaryl histamine 45 mg/kg
[18] = day 6, glutaryl histamine 15 mg/kg
[19] = day 6, glutaryl histamine 30 mg/kg
[20] = day 6, glutaryl histamine 45 mg/kg
[21] = day 7, glutaryl histamine 15 mg/kg
[22] = day 7, glutaryl histamine 30 mg/kg
[23] = day 7, glutaryl histamine 45 mg/kg
[24] = day 8, glutaryl histamine 15 mg/kg
[25] = day 8, glutaryl histamine 30 mg/kg
[26] = day 8, glutaryl histamine 45 mg/kg
[27] = day 9, glutaryl histamine 15 mg/kg
[28] = day 9, glutaryl histamine 30 mg/kg
[29] = day 9, glutaryl histamine 45 mg/kg
[30] = day 10, glutaryl histamine 15 mg/kg
[31] = day 10, glutaryl histamine 30 mg/kg
[32] = day 10, glutaryl histamine 45 mg/kg

For `CC1(C)S[C@@H]2[C@H](NC(=O)[C@H](N)c3ccccc3)C(=O)N2[C@H]1C(=O)O` [ampicillin], the ED50 ([1]; Staphylococcus aureus, iv, read-out: ED50 (50% effective dose)) was 17.3 mg/kg, the “Mortality rate (%)” value ([1]; ampicillin 20 mg/kg) was 50% and the “Survival rate (%)” value ([1]; ampicillin 20 mg/kg) was 50%. For the same molecule, the died/survived animals ([1]; day 1, ampicillin 20 mg/kg) was 0/10, the died/survived animals ([1]; day 2, ampicillin 20 mg/kg) was 0/10 and the died/survived animals ([1]; day 3, ampicillin 20 mg/kg) was 0/10. For the same molecule, the died/survived animals ([1]; day 4, ampicillin 20 mg/kg) was 1/9, the died/survived animals ([1]; day 5, ampicillin 20 mg/kg) was 2/8 and the died/survived animals ([1]; day 6, ampicillin 20 mg/kg) was 3/7. For the same molecule, the died/survived animals ([1]; day 7, ampicillin 20 mg/kg) was 4/6, the died/survived animals ([1]; day 8, ampicillin 20 mg/kg) was 4/6 and the died/survived animals ([1]; day 9, ampicillin 20 mg/kg) was 5/5. For the same molecule, the died/survived animals ([1]; day 10, ampicillin 20 mg/kg) was 5/5.
With `O=C(O)CCCC(=O)NCCc1c[nH]cn1` [glutaryl histamine] the died/survived animals [2, 3] was 0/10, the died/survived animals [2, 4] was 0/10 and the died/survived animals [2, 5] was 0/10. For the same molecule, the died/survived animals [2, 6] was 0/10, the died/survived animals [2, 7] was 0/10 and the died/survived animals [2, 8] was 1/9. For the same molecule, the died/survived animals [2, 9] was 0/10, the died/survived animals [2, 10] was 0/10 and the died/survived animals [2, 11] was 1/9. For the same molecule, the died/survived animals [2, 12] was 1/9, the died/survived animals [2, 13] was 1/9 and the died/survived animals [2, 14] was 3/7. The died/survived animals [2, 15] was 2/8, the died/survived animals [2, 16] was 3/7 and the died/survived animals [2, 17] was 5/5. The died/survived animals [2, 18] was 5/5, the died/survived animals [2, 19] was 6/4 and the died/survived animals [2, 20] was 7/3. For the same molecule, the died/survived animals [2, 21] was 6/4, the died/survived animals [2, 22] was 7/3 and the died/survived animals [2, 23] was 8/2. The died/survived animals [2, 24] was 8/2, the died/survived animals [2, 25] was 7/3 and the died/survived animals [2, 26] was 9/1. For the same molecule, the died/survived animals [2, 27] was 8/2, the died/survived animals [2, 28] was 8/2 and the died/survived animals [2, 29] was 9/1. The died/survived animals [2, 30] was 8/2, the died/survived animals [2, 31] was 8/2 and the died/survived animals [2, 32] was 9/1. The “Mortality rate (%)” value ([2]; glutaryl histamine 15 mg/kg) was 80%, the “Survival rate (%)” value ([2]; glutaryl histamine 15 mg/kg) was 20% and the “Mortality rate (%)” value ([2]; glutaryl histamine 30 mg/kg) was 80%. For the same molecule, the “Survival rate (%)” value ([2]; glutaryl histamine 30 mg/kg) was 20%, the “Mortality rate (%)” value ([2]; glutaryl histamine 45 mg/kg) was 90% and the “Survival rate (%)” value ([2]; glutaryl histamine 45 mg/kg) was 10%. The died/survived animals [1, 3] was 0/10, the died/survived animals [1, 4] was 0/10 and the died/survived animals [1, 5] was 0/10. The died/survived animals [1, 6] was 0/10, the died/survived animals [1, 7] was 0/10 and the died/survived animals [1, 8] was 0/10. For the same molecule, the died/survived animals [1, 9] was 0/10, the died/survived animals [1, 10] was 0/10 and the died/survived animals [1, 11] was 1/9. The died/survived animals [1, 12] was 1/9, the died/survived animals [1, 13] was 1/9 and the died/survived animals [1, 14] was 1/9. The died/survived animals [1, 15] was 2/8, the died/survived animals [1, 16] was 2/8 and the died/survived animals [1, 17] was 3/7. The died/survived animals [1, 18] was 4/6, the died/survived animals [1, 19] was 3/7 and the died/survived animals [1, 20] was 4/6. For the same molecule, the died/survived animals [1, 21] was 5/5, the died/survived animals [1, 22] was 4/6 and the died/survived animals [1, 23] was 5/5. The died/survived animals [1, 24] was 6/4, the died/survived animals [1, 25] was 6/4 and the died/survived animals [1, 26] was 6/4. For the same molecule, the died/survived animals [1, 27] was 6/4, the died/survived animals [1, 28] was 7/3 and the died/survived animals [1, 29] was 7/3. For the same molecule, the died/survived animals [1, 30] was 7/3, the died/survived animals [1, 31] was 7/3 and the died/survived animals [1, 32] was 8/2. For the same molecule, the “Mortality rate (%)” value ([1]; glutaryl histamine 15 mg/kg) was 70%, the “Survival rate (%)” value ([1]; glutaryl histamine 15 mg/kg) was 30% and the “Mortality rate (%)” value ([1]; glutaryl histamine 30 mg/kg) was 70%. The “Survival rate (%)” value ([1]; glutaryl histamine 30 mg/kg) was 30%, the “Mortality rate (%)” value ([1]; glutaryl histamine 45 mg/kg) was 80% and the “Survival rate (%)” value ([1]; glutaryl histamine 45 mg/kg) was 20%.
